US20060252073A1, “Compositions and methods for the treatment of cancer” (Regents of the University of Michigan, priority 2005, published 2006)
Several values for one entry are separate records, joined by “and”; a condition that tells them apart may be missing. Equal entries are not always repeated.

Columns and labels:
Pten^fl/flMx-1-Cre mice = assay: Rapamycin given immediately after Pten deletion (pIpC) in Pten fl/fl Mx-1-Cre mice; type: in vivo; conditions: daily injections for 7 days after pIpC treatment
Method: Administration of polyinosine-polycytidine (pIpC) to induce Mx-1-Cre expression. pIpC (Sigma P-0913) was resuspended with DPBS at a concentration of 2 mg/ml and passed through a 0.22 uM filter (See, e.g., Mikkola et al., Nature 421, 54751 (2003)). Mice received 25 ug of pIpC/g of body mass every other day for 2 weeks.
(§1) Administration of Rapamycin.
(§2) Histopathology. Spleen, liver, and thymus samples were fixed in 10% neutral buffered formalin and paraffin embedded. Thin sections (5 μm) were cut on a microtome and stained with hematoxylin and eosin using standard protocols. Chloroacetate esterase staining was performed using a Leder stain kit (Sigma).
All 3 such mice in this experiment died within 3-4 weeks of pIpC treatment, with AML and ALL (FIG. 9c).

[1] = system: established leukemias (AML and ALL); assay: Rapamycin against established leukemias in mice transplanted with Pten fl/fl Mx-1-Cre bone marrow cells, starting 15 weeks after pIpC; type: in vivo; conditions: daily 4 mg/kg from 15 weeks after pIpC
Method: as §1, §2
To test if rapamycin was effective against established leukemias, mice that had been transplanted with Pten^fl/fl Mx-1-Cre bone marrow cells were treated with daily injections of vehicle or rapamycin, beginning 15 weeks after pIpC.
Mice that had been transplanted with 1×10^6 Pten^fl/fl Mx-1-Cre donor (CD45.2^+) bone marrow cells along with 0.5×10^6 control (CD45.1^+) bone marrow cells were treated with daily injections of vehicle or rapamycin (4 mg/kg), starting 15 weeks after pIpC treatment.

[2] = system: Flk2^−Sca-1^+Lin^−c-kit^+CD48^− cells (HSCs); conditions: mouse, in vivo
Source text: Flow cytometry and the isolation of hematopoietic stem cells (HSCs). Bone marrow cells were flushed from long bones with Hank's buffered salt solution without calcium or magnesium, supplemented with 2% heat-inactivated calf serum (GIBCO, Grand Island, N.Y.; HBSS^+). Cells were triturated and filtered through a nylon screen (45 μm, Sefar America, Kansas City, Mo.) to obtain a single cell suspension. Flk2^−Sca-1^+ Lineage^− c-kit^+ CD48^− HSCs and Thy1.1^low Sca-1^+ Mac-1^low CD4^low B220 MPPs were isolated as previously described (See, e.g., Christensen and Weissman, Proc Natl Acad Sci USA 98, 14541-6 (2001); Kiel et al., Cell 121, 1109-21 (2005); Morrison and Weissman, Immunity 1, 661-673 (1994)). For isolation of Flk2^−Sca-1^+ Lineage c-kit^+ CD48^− HSCs, whole bone marrow cells were incubated with unconjugated monoclonal antibodies to lineage markers including B220 (6B2), CD3 (KT31.1), CD4 (GK1.5), CD5 (53-7.3), CD8 (53-6.7), Gr-1 (8C5), Mac-1 (M1/70) and Terl19. Following dilution, pelleted cells were resuspended in anti-rat IgG-specific F(ab)2 conjugated to phycoerythrin (PE; Jackson ImmunoResearch, West Grove, Pa.). […] When CD45.2^+ HSCs were analyzed, CD45.2 (104-FITC; BD PharMingen) and CD48 (HM48-1-PE, eBioscience) were used. […]
Cell cycle analysis. BrdU incorporation was measured by flow-cytometry (BD PharMingen). […]

Compound: CO[C@H]1C[C@@H]2CC[C@@H](C)[C@@](O)(O2)C(=O)C(=O)N2CCCC[C@H]2C(=O)O[C@H]([C@H](C)C[C@@H]2CC[C@@H](O)[C@H](OC)C2)CC(=O)[C@H](C)/C=C(\C)[C@@H](O)[C@@H](OC)C(=O)[C@H](C)C[C@H](C)/C=C/C=C/C=C/1C [Rapamycin]
- bone marrow and spleen cellularity in control mice (Pten^fl/flMx-1-Cre mice): without significantly affecting
- Bone marrow HSCs that were donor type, average ([1]; average of 3 mice): 39 ± 6%
- Bone marrow HSCs that were donor type ([1]; individual mice, Pten-deficient donor (CD45.2+) HSCs, 4 mg/kg): 35% and 45% and 36%
- HSC numbers in control mice [2]: without affecting
- proliferation of HSCs from control littermates [2]: without affecting
